Measurements taken from ChEMBL document CHEMBL6134914, “Novel Bicyclic Heterocycles as MRGPRX2 Antagonists for Treating Inflammatory Diseases” (ACS Med Chem Lett, 2025).

target: T1, Mas-related G-protein coupled receptor member X2 (Homo sapiens, UniProt Q96LB1); assay: Inhibition of human MRGPRX2 expressed in CHO-K1 cells assessed as Ca2+ release incubated for 30 mins by FLIPR calcium mobilization assay; assay type: functional, cell-based
T1 sequence (Q96LB1 whole entry): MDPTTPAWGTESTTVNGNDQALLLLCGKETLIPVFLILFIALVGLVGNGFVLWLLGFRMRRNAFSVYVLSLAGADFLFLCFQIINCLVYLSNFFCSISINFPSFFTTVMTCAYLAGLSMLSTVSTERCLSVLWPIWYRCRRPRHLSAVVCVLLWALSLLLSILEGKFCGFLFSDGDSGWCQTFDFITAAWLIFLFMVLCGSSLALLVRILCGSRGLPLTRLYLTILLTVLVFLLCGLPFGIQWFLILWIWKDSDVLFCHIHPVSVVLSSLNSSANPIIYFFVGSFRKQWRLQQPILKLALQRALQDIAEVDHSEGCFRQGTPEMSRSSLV

SMILES | IC50 [nM]
NC(=O)N1CCC(CNc2cc(C(F)(F)F)nc3ccc(Cl)cc23)(c2ccc(F)cn2)C1 (stereo unspecified) | 0.1
NS(=O)(=O)N1CC(CNc2cc(C(F)(F)F)nc3ccc(Br)cc23)(c2ccc(F)cc2)C1 | 0.1
NS(=O)(=O)N1CC(CNc2cc(C(F)(F)F)nc3ccc(Cl)cc23)(c2ccc3ccccc3n2)C1 | 0.1
N#Cc1cnn(C2(CNc3cc(C(F)(F)F)nc4ccc(Cl)cc34)CN(C(N)=O)C2)c1 | 0.1
Cc1csc(C2(CNc3cc(C(F)(F)F)nc4ccc(Cl)cc34)CN(S(N)(=O)=O)C2)n1 | 0.1
NS(=O)(=O)N1CCC(CNc2cc(C(F)(F)F)nc3ccc(Cl)cc23)(c2ccc(F)cn2)CC1 | 0.1
